Reference: PMC12486805, “Preclinical evaluation of tridecaptin M: in vitro and in vivo efficacy against colistin-resistant Gram-negative bacterial pathogens and pharmacokinetics” (Antimicrobial Agents and Chemotherapy, 2025)
Where two headings read alike, the source gives them in different places. Marks after values point to notes of the source that are not given here. Where a SMILES comes first, the peptide text is derived from it. [ ]: non-standard residue; d: D form. The star is where a group is joined. d(aIle) = CC[C@H](C)[C@@H](N)C(=O)O; X1 = CC[C@H](C)CCCCC(=O)*; dDab = NCC[C@@H](N)C(=O)O; Dab = NCC[C@H](N)C(=O)O

What was measured:
CYP1A2 = biological target: T1, CYP1A2 (Homo sapiens, UniProt P05177); test: biochemical; format: biochemical
T1 sequence (P05177 1-516): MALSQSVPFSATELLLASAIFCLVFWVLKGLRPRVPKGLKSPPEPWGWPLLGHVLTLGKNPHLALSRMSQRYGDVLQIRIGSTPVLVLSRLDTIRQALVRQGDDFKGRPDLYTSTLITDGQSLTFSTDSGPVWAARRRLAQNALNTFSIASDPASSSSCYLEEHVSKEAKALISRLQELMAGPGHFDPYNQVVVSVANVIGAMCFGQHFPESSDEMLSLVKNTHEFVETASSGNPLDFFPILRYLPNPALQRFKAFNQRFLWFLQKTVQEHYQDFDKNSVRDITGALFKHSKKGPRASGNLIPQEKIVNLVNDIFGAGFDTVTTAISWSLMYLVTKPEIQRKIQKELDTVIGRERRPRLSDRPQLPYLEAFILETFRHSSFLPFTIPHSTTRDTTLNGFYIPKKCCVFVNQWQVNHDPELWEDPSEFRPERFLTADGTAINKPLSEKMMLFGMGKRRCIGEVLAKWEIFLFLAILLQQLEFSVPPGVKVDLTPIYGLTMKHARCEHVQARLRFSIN
Procedure: The CYP inhibition assay was performed for test/control inhibitor items in duplicates using a 96-well fluorescence plate. An example of the preparation of CYP inhibition is given below in Table 8.
The plate with CYP master premix with test/control was incubated to allow the test/control samples to interact with CYP enzyme for 10 ± 1 min at 25°C under shaking conditions (400 rpm) using Thermomixer. The assay was initiated by adding 10 µL of a substrate and NADP^+ mixture to all wells, including a vehicle control and an assay blank. […] After incubation, the reaction was quenched by adding 50 µL of stop reagent (0.5 M Tris base) to each well.

[1] = Intravenous acute toxicity in mice; format: in vivo, Balb/c mice
Procedure: In total, 8–10 week old female Balb/c mice (n = 3) were administered tridecaptin M starting at 15 mg/kg, 25 mg/kg, 50 mg/kg, and 100 mg/kg. […] In this study, we administered 18 mg/kg of colistin to mice intravenously. […] Later, in the second set, intermediate concentrations of 20 mg/kg, 25 mg/kg, 30 mg/kg, 35 mg/kg, and 40 mg/kg doses were also administered to n = 4 mice. In these groups, blood was collected at 24 h post administration or immediately after visible movement stopped (40 mg/kg group), serum was separated and pooled together for each group n = 4, and biochemical serum tests were conducted.

in vivo = conditions: male, Sprague-Dawley, rat, plasma, 5 mg/kg; for Cmax / half-life: 5 mg/kg b.w.
Procedure: The samples were then centrifuged at 4,000 rpm for 10 min at 4°C to separate plasma, which was stored at −80°C until analysis.

hERG channel = biological target: T2, hERG channel (Homo sapiens, UniProt Q12809); test: hERG channel inhibition, patch clamp on HEK293 cells expressing hERG; format: cell-based
T2 construct: expressed in transfected cells; host or cells: HEK293
T2 sequence (Q12809 whole entry): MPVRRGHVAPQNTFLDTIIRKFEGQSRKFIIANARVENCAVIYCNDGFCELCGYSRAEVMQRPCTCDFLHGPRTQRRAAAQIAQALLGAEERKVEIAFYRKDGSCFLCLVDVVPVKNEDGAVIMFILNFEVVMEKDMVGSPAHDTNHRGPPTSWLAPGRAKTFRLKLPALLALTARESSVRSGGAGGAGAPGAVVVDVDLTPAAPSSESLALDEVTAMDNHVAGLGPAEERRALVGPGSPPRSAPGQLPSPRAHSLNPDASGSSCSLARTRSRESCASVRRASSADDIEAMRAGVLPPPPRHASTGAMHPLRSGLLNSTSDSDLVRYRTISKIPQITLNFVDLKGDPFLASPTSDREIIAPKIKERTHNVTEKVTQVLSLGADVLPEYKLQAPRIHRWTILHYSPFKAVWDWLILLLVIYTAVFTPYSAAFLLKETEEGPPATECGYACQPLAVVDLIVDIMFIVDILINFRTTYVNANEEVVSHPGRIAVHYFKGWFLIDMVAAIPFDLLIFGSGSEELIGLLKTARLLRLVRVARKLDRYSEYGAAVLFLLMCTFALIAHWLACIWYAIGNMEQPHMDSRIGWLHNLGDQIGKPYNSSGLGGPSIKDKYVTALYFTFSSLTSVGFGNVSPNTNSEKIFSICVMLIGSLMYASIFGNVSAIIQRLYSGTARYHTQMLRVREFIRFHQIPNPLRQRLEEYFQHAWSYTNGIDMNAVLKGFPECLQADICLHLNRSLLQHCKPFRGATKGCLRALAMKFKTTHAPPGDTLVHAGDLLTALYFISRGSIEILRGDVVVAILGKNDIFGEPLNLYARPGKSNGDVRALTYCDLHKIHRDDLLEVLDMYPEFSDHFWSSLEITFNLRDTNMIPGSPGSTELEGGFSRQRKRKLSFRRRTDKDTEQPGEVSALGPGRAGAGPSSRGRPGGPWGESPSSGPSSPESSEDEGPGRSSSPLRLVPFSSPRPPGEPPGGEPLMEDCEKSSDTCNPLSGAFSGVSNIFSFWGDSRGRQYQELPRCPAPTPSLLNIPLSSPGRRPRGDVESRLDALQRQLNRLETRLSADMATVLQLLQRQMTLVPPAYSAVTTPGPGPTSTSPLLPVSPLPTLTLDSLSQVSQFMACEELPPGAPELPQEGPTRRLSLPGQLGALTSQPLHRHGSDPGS
Procedure: The experiment starts upon reaching a resistance of 2-3.5 MOhm. A 5 µL cell suspension is added after generating a suction pulse to capture a cell, increasing resistance to 5 MOhm, and triggering the sealing step. […] A hERG protocol measures ion current every 10 s with voltage steps: holding at −80 mV, depolarizing to +40 mV, and repolarizing to −40 mV. Stable current is achieved in ~2 min. […]

[2] = mouse liver microsomes
Procedure: (§1) For without cofactors, 20 µL of PBS was added instead of pre-incubated cofactors. […] At each specified time, a 100 µL sample was taken, processed through a sample extraction procedure, and submitted for LC-MS/MS analysis ([35]). Half-life (t1/2) of test/control items was determined using the following equation
(§2) where, elimination rate constant (k) = −(slope of linear regression curve).

mammalian cell lines = conditions: cited from earlier work
[3] = rat liver microsomes
Procedure: as §1, §2

[4] = 40 /kg i.v., at death within 2 h

CC[C@H](C)CCCCC(=O)NCC(=O)N[C@H](CCN)C(=O)NCC(=O)N[C@H](CO)C(=O)N[C@H](Cc1c[nH]c2ccccc12)C(=O)N[C@@H](CO)C(=O)N[C@@H](CCN)C(=O)N[C@H](CCN)C(=O)N[C@H](C(=O)N[C@@H](CCC(=O)O)C(=O)N[C@H](C(=O)N[C@@H](C(=O)N[C@@H](CO)C(=O)O)[C@@H](C)CC)[C@@H](C)CC)[C@@H](C)CC [Tridecaptin M, tridecaptin M] (X1-G[dDab]G[dS][dW]S[Dab][dDab]IEI[d(aIle)]S-OH)
IC50 (CYP1A2): > 30 µM | inhibition at 25 min, 0.01 µM (CYP1A2; human, % inhibition CYP 1A2): < 0% | inhibition at 25 min, 0.03 µM (CYP1A2; human, % inhibition CYP 1A2): < 0% | inhibition at 25 min, 0.1 µM (CYP1A2; human, % inhibition CYP 1A2): < 0% | inhibition at 25 min, 0.3 µM (CYP1A2; human, % inhibition CYP 1A2): < 0% | inhibition at 25 min, 1 µM (CYP1A2; human, % inhibition CYP 1A2): < 0% | inhibition at 25 min, 3 µM (CYP1A2; human, % inhibition CYP 1A2): < 0% | inhibition at 25 min, 10 µM (CYP1A2; human, % inhibition CYP 1A2): < 0% | inhibition at 25 min, 30 µM (CYP1A2; human, % inhibition CYP 1A2): ≤ 0% | Amylase (pooled serum) ([1]; 20 mg/kg i.v., 24 h): 3800 U/L | BUN (pooled serum) ([1]; 20 mg/kg i.v., 24 h): 96 mg% | CPK (pooled serum) ([1]; 20 mg/kg i.v., 24 h): 448 U/L | CPK_MB (pooled serum) ([1]; 20 mg/kg i.v., 24 h): 420 U/L | Glucose (pooled serum) ([1]; 20 mg/kg i.v., 24 h): 344 mg/dL | LDH (pooled serum) ([1]; 20 mg/kg i.v., 24 h): 2120 U/L | Lipase (pooled serum) ([1]; 20 mg/kg i.v., 24 h): 1016 U/L | SGOT (pooled serum) ([1]; 20 mg/kg i.v., 24 h): 244 Units/L | SGPT (pooled serum) ([1]; 20 mg/kg i.v., 24 h): 68 Units/L | outcome of i.v. administration ([1]; 25 mg/kg or less i.v.): no visible signs of toxicity or mortality | clinical signs ([1]; 30 mg/kg i.v.): abnormal motor behavior, including dragging of limbs | survival time post-administration ([1]; 30 mg/kg i.v.): 6 to 10 h | time to mortality ([1]; 40 mg/kg i.v.): ≤ 2 h | outcome of i.v. administration ([1]; 50 mg/kg i.v.): resulted in mortality | outcome of i.v. administration ([1]; 100 mg/kg i.v.): immediately lethal | Amylase (pooled serum) ([1]; 25 /kg i.v., 24 h): 5144 U/L | BUN (pooled serum) ([1]; 25 /kg i.v., 24 h): 112 mg% | CPK (pooled serum) ([1]; 25 /kg i.v., 24 h): 712 U/L | CPK_MB (pooled serum) ([1]; 25 /kg i.v., 24 h): 952 U/L | Glucose (pooled serum) ([1]; 25 /kg i.v., 24 h): 248 mg/dL | LDH (pooled serum) ([1]; 25 /kg i.v., 24 h): 3896 U/L | Lipase (pooled serum) ([1]; 25 /kg i.v., 24 h): 972 U/L | SGOT (pooled serum) ([1]; 25 /kg i.v., 24 h): 872^b Units/L | SGPT (pooled serum) ([1]; 25 /kg i.v., 24 h): 208 Units/L | Amylase (pooled serum) [1, 4]: 1560 U/L | BUN (pooled serum) [1, 4]: 24 mg% | CPK (pooled serum) [1, 4]: 24,472 U/L | CPK_MB (pooled serum) [1, 4]: 1408 U/L | Glucose (pooled serum) [1, 4]: 152 mg/dL | LDH (pooled serum) [1, 4]: 3280 U/L | Lipase (pooled serum) [1, 4]: 368 U/L | SGOT (pooled serum) [1, 4]: 784 Units/L | SGPT (pooled serum) [1, 4]: 88 Units/L | histopathology of liver, kidney, heart and brain vs control ([1]; i.v. administration): no significant morphological alterations | dose at which acute toxicity is seen ([1]; intravenous administration): ≥ 30 mg/kg | AUC(0-t) (in vivo; iv): 94.6 ± 45 µg·h/mL | MRT last (in vivo; iv): 2.69 ± 1.02 h | Vd (in vivo; iv): 0.16 ± 0.04 L/kg | clearance (in vivo; iv): 0.06 ± 0.0198 L/h/kg | Cmax (in vivo; iv): 38.5 µg/mL | half-life (in vivo; iv, T1/2, intravenous): 3.65 ± 0.56 h | AUC(0-t) (in vivo; sc): 14.1 ± 2.09 µg·h/mL | MRT last (in vivo; sc): 8.81 ± 2.1 h | Cmax (in vivo; sc, subcutaneous): 9.15 ± 1.7 µg/mL | half-life (in vivo; sc, T1/2, subcutaneous): 8.81 h | Mean current (hERG channel; 0.1 µM): 4.41E-10 A | Mean current (hERG channel; 0.3 µM): 4.66E-10 A | Mean current (hERG channel; 1 µM): 4.64E-10 A | Mean current (hERG channel; 3 µM): 4.58E-10 A | Mean current (hERG channel; 10 µM): 4.34E-10 A | Mean current (hERG channel; 30 µM): 4.68E-10 A | inhibition of the hERG channel (hERG channel; concentrations up to 30 µM (44.6 µg/mL)): no significant inhibition | inhibition at 0.1 µM (hERG channel; human, HEK293 cells expressing hERG, pH 7.4, 0.1 µM): -0.37% | inhibition at 0.3 µM (hERG channel; human, HEK293 cells expressing hERG, pH 7.4, 0.3 µM): -5.86% | inhibition at 1 µM (hERG channel; human, HEK293 cells expressing hERG, pH 7.4, 1 µM): -5.54% | inhibition at 3 µM (hERG channel; human, HEK293 cells expressing hERG, pH 7.4, 3 µM): -4.07% | inhibition at 10 µM (hERG channel; human, HEK293 cells expressing hERG, pH 7.4, 10 µM): 1.37% | inhibition at 30 µM (hERG channel; human, HEK293 cells expressing hERG, pH 7.4, 30 µM): -6.44% | CL [2]: <11.55 µL/min/mg | cytotoxicity (mammalian cell lines): non-cytotoxic | CL [3]: <11.55 µL/min/mg
